From US9079897B2, “Imidazo-pyridine derivatives as activin-like receptor kinase (ALK4 or ALK5) inhibitors” (NOVARTIS AG, priority 2008, dated 2015)

Experiments:
[1] = molecular target: T1, human ALK5 (kinase domain, ALK5 T204D) (Homo sapiens, UniProt P36897, T204D); test: ALK5 kinase activity, [33P] phosphate incorporation into casein; format: biochemical; conditions: casein substrate
T1 construct: The kinase domain of human ALK5 (amino acids 200-503); made in house; host or cells: insect cells (baculovirus expression)
T1 sequence (P36897 200-503 T204D): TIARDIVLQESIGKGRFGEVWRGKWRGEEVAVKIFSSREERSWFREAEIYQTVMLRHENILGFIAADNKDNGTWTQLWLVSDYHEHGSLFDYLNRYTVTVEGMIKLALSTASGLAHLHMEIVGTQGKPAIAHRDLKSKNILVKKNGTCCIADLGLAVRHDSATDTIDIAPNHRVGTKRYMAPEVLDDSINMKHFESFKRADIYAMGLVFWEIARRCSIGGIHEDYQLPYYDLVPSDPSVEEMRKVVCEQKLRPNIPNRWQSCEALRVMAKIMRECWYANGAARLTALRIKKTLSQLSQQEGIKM
Description: The kinase activity of ALK5 is assessed by measuring radiolabelled phosphate [33P] incorporation in to the generic substrate, casein. The kinase domain of human ALK5 (amino acids 200-503) is fused to an N-terminal histidine tag. The kinase activity of ALK5 is rendered constitutive via point mutation at amino acid 204 (threonine to aspartate modification, ALK5 T204D) and the kinase construct is engineered to be expressed from a baculovirus expression construct in insect cells. The purified, recombinantly-expressed histidine-tagged ALK5 T204D protein is dissolved at 5.4 mg/ml in 50 mM Tris-HCl pH 8.0, 150 mM NaCl, 5 mM DTT. ALK5 T204D is dissolved to 2.5 μg/ml in assay buffer (Assay buffer: 20 mM Tris-HCl pH 7.4, 10 mM MgCl2, 2 mM MnCl2) on the day of use.
Test compounds and reference compounds are dissolved in assay buffer without DTT containing 5% (v/v) DMSO. Stock solutions of test and reference compounds are diluted in assay buffer with DTT (1.25 mM) containing 4.5% (v/v) DMSO. 10 μl of test or reference compound are added to the appropriate wells of 96 well U-bottomed plate. Total enzyme activity is determined by measuring ALK5 T204D activity in the absence of ALK5 kinase inhibitor reference compounds. Non-specific binding (NSB) is determined by measuring the activity of ALK5 T204D in the presence of ALK5 kinase inhibitor reference compounds. 10 μl of dephosphorylated casein stock solution (dephosphorylated casein is dissolved in ddH2O at 20 mg/ml) is added per well (200 μg/well final assay concentration). 20 μl of ALK5 T204D (2.5 μg/ml solution) is added per well (50 ng/well final assay concentration). The plates are left to incubate at room temperature for 10 minutes.
10 μl of ATP mix is added to the well to initiate the reaction (0.66 nM [^33P]ATP/1 μM unlabelled ATP/well final assay concentration). The ATP mix is prepared as follows, unlabelled ATP (3 mM) is dissolved in ddH2O and pH adjusted to 7.4. The stock concentration of [^33P]ATP is 10 μCi/μl. The appropriate volume of [^33P]ATP is added to unlabelled ATP solution such that the final assay concentration per well is 0.1 μCi. Following addition of the ATP mix, the plates are incubated at room temperature for 50 minutes. The kinase reaction is terminated by the addition of 50 μL Stop Buffer (20 mM Tris-HCl pH 7.4, 10 mM EDTA).
75 μl/well from the reaction plate is transferred to a Multiscreen-IP plate (MultiScreen-IP plates are prepared by added 50 μL of 70% (v/v) ethanol per well and incubated for 5 minutes at room temperature. The ethanol is removed by aspiration via a MultiScreen HTS Vaccum Manifold unit (Millipore, Cat no: MSVMHT500). The plates are washed twice by adding 200 μl/well ddH2O). The MultiScreen-IP plate is incubated at room temperature for 30 minutes to allowing binding of casein to the plate. The MultiScreen-IP plates are washed three times by adding 200 μl/well 100 mM phosphoric acid solution and the gasket is carefully removed from the back of the MultiScreen-IP plate and the plate dried in the oven for 30 minutes. The MultiScreen-IP plate is backsealed, 50 μL of MICROSCINT™20 is added, then the plates are topsealed and radiolabelled casein detected and quantified on a TOPCOUNT™ plate-reader using the ^33P scintillation protocol.

[2] = system: dimethylnitrosamine induced liver fibrosis; conditions: rat, cited from earlier work
[3] = system: bleomycin-induced pulmonary fibrosis; conditions: bleomycin-treated rats; cited from earlier work
[4] = given therapeutically, dimethylnitrosamine induced liver fibrosis

| Molecule | IC50 [1] [nM] | further results |
| --- | --- | --- |
| O[C@H]1CCC[C@@H](Nc2ccc3ncn(-c4ccnc(-n5cccn5)c4)c3n2)C1 (racemic) [Example 1.17, (1SR,3RS)-3-[3-(2-Pyrazol-1-yl-pyridine-4-yl)-3H-imidazo[4,5-b]pyridin-5-ylamino]-cyclohexanol] | 56 | – |
| Cc1ccn(-c2cc(-n3cnc4ccc(NC5CCCC(O)C5)nc43)ccn2)n1 (stereo not drawn) [Example 1.13, (1SR,3RS)-3-{3-[2-(3-Methyl-pyrazol-1-yl)pyridine-4-yl]-3H-imidzo[4,5-b]pyridin-5-ylamino}-cyclohexanol] | 38 | – |
| c1ccc(-c2cc(-c3cn[nH]c3-c3ccccn3)ccn2)cc1 [GW6604] | – | side effects ([2]; 3 weeks treatment): no obvious side effects; inhibition of extracellular matrix deposition [2, 4]: 60%; prevention of death rate [2, 4]: 40% |
| follistatin: an antagonist of activin signalling (protein, UniProt P19883 30-344, looked up) Follistatin: GNCWLRQAKNGRCQVLYKTELSKEECCSTGRLSTSWTEEDVNDNTLFKWMIFNGGAPNCIPCKETCENVDCGPGKKCRMNKKNKPRCVCAPDCSNITWKGPVCGLDGKTYRNECALLKARCKEQPELEVQYQGRCKKTCRDVFCPGSSTCVVDQTNNAYCVTCNRICPEPASSEQYLCGNDGVTYSSACHLRKATCLLGRSIGLAYEGKCIKAKSCEDIQCTGGKKCLWDFKVGRGRCSLCDELCPDSKSDEPVCASDNATYASECAMKEAACSSGVLLEVKHSGSCNSISEDTEEEEEDEDQDYSFPISSILEW | – | lung fibrosis [3]: attenuated lung fibrosis; number of macrophages and neutrophils in bronchoalveolar lavage [3]: significantly reduced |

Now from value to molecule, other results behind:

| IC50 [1] [nM] | Molecule | further results |
| --- | --- | --- |
| 6 | O[C@H]1CCC[C@@H](Nc2ccc3ncn(-c4ccnc(-c5ccoc5)c4)c3n2)C1 (racemic) [Example 1.5, (1SR, 3RS)-3-[3-(2-Furan-3-yl-pyridin-4-yl)-3H-imidazo[4,5-b]pyridin-5-ylamino]-cyclohexanol] | – |
| 318 | O[C@H]1CCC[C@H](Nc2ccc3ncn(-c4ccnc(-c5ccc(F)cc5)c4)c3n2)C1 (racemic) [Example 1.9, (1SR, 3SR)-3-{3-[2-(4-Fluorophenyl)-pyridin-4-yl)-3H-imidazo[4,5-b]pyridin-5-ylamino}-cyclohexanol] | – |
| 13 | OC1CCC(Nc2ccc3ncn(-c4ccnc(-c5ccoc5)c4)c3n2)CC1 (stereo not shown) [Example 1.1, 4-[3-(2-Furan-3-yl-pyridin-4-yl)-3H-imidazo[4,5-b]pyridin-5-ylamino]-cyclohexanol] | – |
